Values belong to the compound of their own block, whether it stands above or below them.
Assays:
MRC5 [1] = test: Cytotoxicity against human diploid embryonic lung cell line (MRC5 cells) using the colorimetric MTT assay; assay type: functional
Plasmodium falciparum = test: Antimalarial activity against chloroquine-resistant Plasmodium falciparum FcB1; assay type: functional, organism-based
MRC5 [2] = test: Relative inhibitory activity to cytotoxicity as selectivity index (CC50/IC50); assay type: functional
[3] = target: T1, Histidine-rich protein PFHRP-II (Plasmodium falciparum) (UniProt P05227); test: Vacuolar accumulation ratio (VAR) on beta-hematin inhibitory activity; assay type: functional
T1 sequence (whole entry): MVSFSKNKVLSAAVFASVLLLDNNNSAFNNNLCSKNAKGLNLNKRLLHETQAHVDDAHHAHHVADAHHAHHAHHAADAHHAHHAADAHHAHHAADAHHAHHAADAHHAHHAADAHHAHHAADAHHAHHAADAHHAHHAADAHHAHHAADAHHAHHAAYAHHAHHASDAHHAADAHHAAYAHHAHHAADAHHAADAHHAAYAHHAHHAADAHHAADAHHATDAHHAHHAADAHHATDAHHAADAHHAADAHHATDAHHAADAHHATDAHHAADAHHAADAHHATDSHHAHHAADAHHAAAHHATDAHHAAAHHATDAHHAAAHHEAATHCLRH

[4] = target: T1, Histidine-rich protein PFHRP-II (Plasmodium falciparum); test: Inhibition of 1-monooleoyl glycerol (MOG) induced beta-hematin formation at 200 uM; assay type: functional

Compound: CC(C)CN(CCCN1CCN(CCCNc2nc3ccccc3[nH]2)CC1)CC(C)C
CC50 (MRC5 [1]): 16 µM
IC50 (Plasmodium falciparum): 0.0873 µM
Selectivity index (MRC5 [2]): 183
VAR [3]: 388000

Compound: CCN(CC)CCCC(C)Nc1ccnc2cc(Cl)ccc12 (stereo unspecified) [CHLOROQUINE]
CC50 (MRC5 [1]): 50 µM
VAR [3]: 5310

Compound: CC(C)CN(CCCN1CCN(CCCNC(=O)c2ccc3ccccc3c2)CC1)CC(C)C
CC50 (MRC5 [1]): 44 µM
IC50 (Plasmodium falciparum): 0.672 µM
inhibition [4]: 54%
Selectivity index (MRC5 [2]): >65
VAR [3]: 3300

Compound: CC(C)CN(CCCN1CCN(CCCNCc2ccncc2)CC1)CC(C)C
CC50 (MRC5 [1]): 30 µM
IC50 (Plasmodium falciparum): 0.842 µM
Selectivity index (MRC5 [2]): 36
VAR [3]: 504000

Compound: CC(C)CN(CCCN1CCN(CCCNc2ccc([N+](=O)[O-])cn2)CC1)CC(C)C
CC50 (MRC5 [1]): 49 µM
IC50 (Plasmodium falciparum): 0.758 µM
inhibition [4]: 53%
Selectivity index (MRC5 [2]): 65
VAR [3]: 3800

Compound: CC(C)CN(CCCN1CCN(CCCNCc2ccc3ccccc3c2)CC1)CC(C)C
CC50 (MRC5 [1]): 6.5 µM
IC50 (Plasmodium falciparum): 0.121 µM
inhibition [4]: 98%
Selectivity index (MRC5 [2]): 54
VAR [3]: 475000

Compound: CC(C)CN(CCCN1CCN(CCCNc2ccnc3ccccc23)CC1)CC(C)C
CC50 (MRC5 [1]): 30 µM
IC50 (Plasmodium falciparum): 0.0189 µM
Selectivity index (MRC5 [2]): 1587
VAR [3]: 882000

Compound: COc1ccc(C(=O)NCCCN2CCN(CCCN(CC(C)C)CC(C)C)CC2)cc1
CC50 (MRC5 [1]): 57.7 µM
IC50 (Plasmodium falciparum): 4.43 µM
VAR [3]: 3100

Compound: CC(C)CN(CCCN1CCN(CCCNc2[nH]cnc3ncnc2-3)CC1)CC(C)C
CC50 (MRC5 [1]): 82 µM
IC50 (Plasmodium falciparum): 1.23 µM
inhibition [4]: 53%
Selectivity index (MRC5 [2]): 67
VAR [3]: 6200

Compound: CC(C)CN(CCCN1CCN(CCCNCc2ccc(Cl)cc2)CC1)CC(C)C
CC50 (MRC5 [1]): 13 µM
IC50 (Plasmodium falciparum): 0.0406 µM
VAR [3]: 475000

Compound: CC(C)CN(CCCN1CCN(CCCNCc2ccccc2)CC1)CC(C)C
CC50 (MRC5 [1]): 21 µM
IC50 (Plasmodium falciparum): 0.454 µM
Selectivity index (MRC5 [2]): 46
VAR [3]: 476000

Compound: CC(C)CN(CCCN1CCN(CCCNC(=O)c2ccc(Cl)cc2)CC1)CC(C)C
CC50 (MRC5 [1]): 93 µM
IC50 (Plasmodium falciparum): 5.27 µM
inhibition [4]: 0%
Selectivity index (MRC5 [2]): 18
VAR [3]: 3400

VAR [3]: 597000
Compound: CC(C)CN(CCCN1CCN(CCCNc2ccnc3cc(Cl)ccc23)CC1)CC(C)C

Compound: COc1ccc(CNCCCN2CCN(CCCN(CC(C)C)CC(C)C)CC2)cc1
CC50 (MRC5 [1]): 12 µM
IC50 (Plasmodium falciparum): 0.111 µM
VAR [3]: 476000

Compound: CC(C)CN(CCCN1CCN(CCCNc2cnccn2)CC1)CC(C)C
CC50 (MRC5 [1]): 80 µM
IC50 (Plasmodium falciparum): 0.531 µM
Selectivity index (MRC5 [2]): 151
VAR [3]: 3600

Compound: CC(C)CN(CCCN1CCN(CCCNC(=O)c2ccncc2)CC1)CC(C)C
CC50 (MRC5 [1]): > 100 µM
IC50 (Plasmodium falciparum): 1.55 µM
inhibition [4]: 0%
Selectivity index (MRC5 [2]): 65
VAR [3]: 3200

Compound: CC(C)CN(CCCN1CCN(CCCNc2nc3ccccc3o2)CC1)CC(C)C
CC50 (MRC5 [1]): > 100 µM
IC50 (Plasmodium falciparum): 1.33 µM
Selectivity index (MRC5 [2]): >75
VAR [3]: 298000
